Values joined by “and” are separate entries in the source; they are usually repeats but may differ in a detail not shown here. Equal values may be shown once. Read-outs that look alike come from different tables or passages of the source.
System: C. elegans
[1] = Table S2, C. elegans SS assay, 110 μM, 0 h, averages of 4 data points
[2] = Table S2, C. elegans SS assay, 110 μM, 24 h, averages of 4 data points

| Compound | Percentage of motility inhibition 0 h [1] [%] | Percentage of motility inhibition 24 h [2] | Percentage of motility inhibition 0 h (110 µM) [%] | Percentage of motility inhibition 24 h (110 µM) [%] |
| --- | --- | --- | --- | --- |
| C[C@H](CC[C@@H](O[C@@H]1O[C@H](CO)[C@@H](O)[C@H](O)[C@H]1O[C@@H]1O[C@H](CO)[C@@H](O)[C@H](O)[C@H]1O)C(C)(C)O)[C@H]1CC[C@@]2(C)[C@H]3CC=C4[C@@H](CC[C@H](O[C@@H]5O[C@H](CO[C@@H]6O[C@H](CO)[C@@H](O)[C@H](O)[C@H]6O)[C@@H](O)[C@H](O)[C@H]5O)C4(C)C)[C@]3(C)[C@H](O)C[C@]12C [Mogroside IV] | 0 | 43% |  |  |
| C[C@H](CC[C@@H](O[C@@H]1O[C@H](CO[C@@H]2O[C@H](CO)[C@@H](O)[C@H](O)[C@H]2O)[C@@H](O)[C@H](O)[C@H]1O[C@@H]1O[C@H](CO)[C@@H](O)[C@H](O)[C@H]1O)C(C)(C)O)[C@H]1CC[C@@]2(C)[C@@H]3CC=C4[C@@H](CC[C@H](O[C@@H]5O[C@H](CO[C@@H]6O[C@H](CO)[C@@H](O)[C@H](O)[C@H]6O)[C@@H](O)[C@H](O)[C@H]5O)C4(C)C)[C@]3(C)[C@H](O)C[C@]12C [Mogroside V] | 19 | 12% |  |  |
| CC1(C)CC[C@]2(C(=O)O[C@@H]3O[C@H](CO)[C@@H](O)[C@H](O)[C@H]3O)CC[C@]3(C)C(=CC[C@@H]4[C@@]5(C)CC[C@H](O[C@@H]6O[C@H](C(=O)O)[C@@H](O)[C@H](O[C@@H]7OC[C@@H](O)[C@H](O)[C@H]7O)[C@H]6O)C(C)(C)[C@@H]5CC[C@]43C)[C@@H]2C1 [Momordin IIc] | 0 | 0% |  |  |
| CC1(C)CC[C@]2(C(=O)O)CC[C@]3(C)C(=CC[C@@H]4[C@@]5(C)CC[C@H](O[C@@H]6O[C@H](C(=O)O)[C@@H](O)[C@H](O[C@@H]7OC[C@@H](O)[C@H](O)[C@H]7O)[C@H]6O)C(C)(C)[C@@H]5CC[C@]43C)[C@@H]2C1 [Momordin Ic] | 12 | 4% |  |  |
| O=C(O)C1=CO[C@@H](O[C@@H]2O[C@H](CO)[C@@H](O)[C@H](O)[C@H]2O)[C@H]2[C@@H]1C=C[C@]2(O)CO [Monotropein] | 0 | 0% |  |  |
| Cl.N=C(N=C(N)N)N1CCOCC1 [Moroxydine (hydrochloride)] | 13 | 8% |  |  |
| CO[C@@]1(NC(=O)C(C(=O)[O-])c2ccc(O)cc2)C(=O)N2C(C(=O)[O-])=C(CSc3nnnn3C)CO[C@@H]21.[Na+].[Na+] (some centres unmarked) [Moxalactam (sodium salt)] | 22 | 8% |  |  |
| CC(C)=CCc1c(-c2ccc(O)cc2O)oc2c(CC=C(C)C)c(O)cc(O)c2c1=O [Mulberrin] | 32 | 5% |  |  |
| CNc1nc2nc[nH]c2c(=O)[nH]1 [N2‐Methylguanine] |  |  | 14 | 43 |
| CC1(C)CC(NC(=O)C(=O)Nc2ccc(Cl)cc2)CC(C)(C)N1 [NBD‐556] | 45 | 11% |  |  |
| CC1(C)CC(NC(=O)C(=O)Nc2ccc(Br)cc2)CC(C)(C)N1 [NBD‐557] | 22 | 14% |  |  |
| C[C@@]1(O)[C@H](O)[C@@H](CO)O[C@H]1n1ccc(N)nc1=O [NM107] | 37 | 27% |  |  |
| CCOc1ccc2ccccc2c1C(=O)N[C@@H]1C(=O)N2[C@@H]1SC(C)(C)[C@@H]2C(=O)[O-].O.[Na+] [Nafcillin (sodium monohydrate)] | 12 | 2% |  |  |
| CCn1cc(C(=O)[O-])c(=O)c2ccc(C)nc21.[Na+] [Nalidixic acid (sodium salt)] | 0 | 0% |  |  |
| CC(C)(C)NCc1cc(Nc2ccnc3cc(Cl)ccc23)c2c(c1O)CCCC2.O=P(O)(O)O.O=P(O)(O)O [Naphthoquine (phosphate)] | 28 | 8% |  |  |
| O=C1N[C@@H]2C(=C[C@H](O)[C@@H](O)[C@H]2O)c2cc3c(c(O)c21)OCO3 [Narciclasine] | 32 | 14% |  |  |
| CC(=O)Oc1ccc([C@@H]2CC(=O)c3c(OC(C)=O)cc(OC(C)=O)cc3O2)cc1 [Naringenin triacetate] | 0 | 14% |  |  |
| C[C@@H]1O[C@@H](O[C@H]2[C@H](Oc3cc(O)c(C(=O)CCc4ccc(O)cc4)c(O)c3)O[C@H](CO)[C@@H](O)[C@@H]2O)[C@H](O)[C@H](O)[C@H]1O [Naringin Dihy drochalcone] | 14 | 1% |  |  |

| Compound | Percentage of motility inhibition 0 h [1] [%] | Percentage of motility inhibition 24 h [2] | Percentage of motility inhibition 0 h (110 µM) [%] | Percentage of motility inhibition 24 h (110 µM) [%] |
| --- | --- | --- | --- | --- |
| CS(=O)(=O)O.Cc1c(O)cccc1C(=O)N[C@@H](CSc1ccccc1)[C@H](O)CN1C[C@H]2CCCC[C@H]2C[C@H]1C(=O)NC(C)(C)C [Nelfinavir (Mesylate)] | 47 | 5% |  |  |
| N#C[C@@H](O[C@@H]1O[C@H](CO[C@@H]2O[C@H](CO)[C@@H](O)[C@H](O)[C@H]2O)[C@@H](O)[C@H](O)[C@H]1O)c1ccccc1 [Neoamygdalin] | 0 | 0% |  |  |
| COc1ccc(-c2cc(=O)c3c(O)cc(O[C@@H]4O[C@H](CO)[C@@H](O)[C@H](O)[C@H]4O[C@@H]4O[C@@H](C)[C@H](O)[C@@H](O)[C@H]4O)cc3o2)cc1O [Neodiosmin] | 14 | 6% |  |  |
| C[C@@H]1O[C@@H](O[C@H]2[C@H](Oc3cc(O)c4c(c3)O[C@H](c3ccc(O)c(O)c3)CC4=O)O[C@H](CO)[C@@H](O)[C@@H]2O)[C@H](O)[C@H](O)[C@H]1O [Neoeriocitrin] | 6 | 13% |  |  |
| COc1ccc([C@@H]2CC(=O)c3c(O)cc(O[C@@H]4O[C@H](CO)[C@@H](O)[C@H](O)[C@H]4O[C@@H]4O[C@@H](C)[C@H](O)[C@@H](O)[C@H]4O)cc3O2)cc1O [Neohesperidin] | 14 | 0% |  |  |
| C[C@@H]1O[C@@H](O[C@H]2C(=O)c3c(O)cc(O)cc3O[C@H]2c2ccc(O)c(O)c2)[C@H](O)[C@H](O)[C@H]1O [Neoisoastilbin] | 0 | 0% |  |  |
| O=C(/C=C/c1ccc(O)cc1)c1ccc(O[C@@H]2O[C@H](CO)[C@@H](O)[C@H](O)[C@H]2O)cc1O [Neoisoliquiritin] | 17 | 11% |  |  |
| O=C1C[C@@H](c2ccc(O)cc2)Oc2cc(O[C@@H]3O[C@H](CO)[C@@H](O)[C@H](O)[C@H]3O)ccc21 [Neoliquiritin] | 0 | 20% |  |  |
| O=c1c2cc(O[C@@H]3O[C@H](CO)[C@@H](O)[C@H](O)[C@H]3O)c(O)cc2oc2cc(O)c([C@@H]3O[C@H](CO)[C@@H](O)[C@H](O)[C@H]3O)c(O)c12 [Neomangiferin] | 7 | 17% |  |  |
| NC[C@@H]1O[C@H](O[C@H]2[C@@H](O)[C@H](O[C@@H]3[C@@H](O)[C@H](N)C[C@H](N)[C@H]3O[C@H]3O[C@H](CN)[C@@H](O)[C@H](O)[C@H]3N)O[C@@H]2CO)[C@H](N)[C@@H](O)[C@@H]1O.O=S(=O)(O)O [Neomycin (sulfate)] | 21 | 3% |  |  |
| C=CC(=C)CCCC(C)CCCC(C)CCCC(C)C (centres unmarked) [Neophytadiene] | 3 | 6% |  |  |
| COc1c(O)cc2oc(-c3ccc(O)c(O)c3)cc(=O)c2c1O [Nepetin] | 4 | 17% |  |  |
| CCN[C@@H]1C[C@H](N)[C@@H](O[C@H]2OC(CN)=CC[C@H]2N)[C@H](O)[C@H]1O[C@H]1OC[C@](C)(O)[C@H](NC)[C@H]1O.CCN[C@@H]1C[C@H](N)[C@@H](O[C@H]2OC(CN)=CC[C@H]2N)[C@H](O)[C@H]1O[C@H]1OC[C@](C)(O)[C@H](NC)[C@H]1O.O=S(=O)(O)O.O=S(=O)(O)O.O=S(=O)(O)O.O=S(=O)(O)O.O=S(=O)(O)O [Netilmicin (sulfate)] | 0 | 1% |  |  |
| C[C@@H]1O[C@@H](OC[C@H]2O[C@@H](Oc3c(-c4ccc(O)cc4)oc4cc(O)cc(O)c4c3=O)[C@H](O)[C@@H](O)[C@@H]2O)[C@H](O)[C@H](O)[C@H]1O [Nicotiflorin] | 4 | 40% |  |  |
| NC(=O)c1ccc[n+]([O-])c1 [Nicotinamide N‐oxide] |  |  | 14 | 32 |
| NC(=O)c1ccc[n+]([C@@H]2O[C@H](CO)[C@@H](O)[C@H]2O)c1.[Cl-] [Nicotinamide riboside (chloride)] | 15 | 0% |  |  |
| NC(=O)c1cccnc1 [Nicotinamide] |  | 0% and 10% |  |  |
| O=C([O-])c1ccc[n+]([C@@H]2O[C@H](CO)[C@@H](O)[C@H]2O)c1 [Nicotinic acid riboside] | 5 | 0% |  |  |

Reference: paper PMC11855827, “High-Throughput Screening of Five Compound Libraries for Anthelmintic Activity and Toxicity Leads to the Discovery of Two Flavonoid Compounds” (International Journal of Molecular Sciences, 2025)
